Source: US20120264786A1, “USE OF THIAZOLIDINEDIONES FOR THE PARTIAL INHIBITION OF ANDROGEN BINDING TO AROMATASE” (priority 2008, published 2012)

Columns and labels:
[1] = tested on: Human granulosa cells; experiment: Estrone production by cultured human granulosa cells with androstenedione as substrate (ELISA/RIA); format: cell-based; settings: 3 μM androstenedione
Description: (§1) Human granulosa cells were obtained during in vitro fertilization over the course of 18 months and were pooled from several patients at a time to ensure adequate cell number for the experiments. The diagnoses included male factor, tubal factor and uterine factor infertility, endometriosis and anovulation. […] La Jolla, Calif.). Estrone and estradiol concentrations in the tissue culture medium were measured using enzyme-linked immuno-sorbent assay (ELISA) (Alpco Diagnostics, Salem, N.H.) or radioimmunoassay (RIA) (Diagnostic Systems Laboratories, Webster, Tex.). […] The statistical interactions between the sets of data obtained with or without rosiglitazone or pioglitazone and with or without aromatase inhibitor I were examined. Pairwise Bonferroni-adjusted contrasts were used to determine statistical significance. […] Adjustments were made for initial inhibition of estradiol or estrone production induced by rosiglitazone or pioglitazone in the absence of insulin, with or without aromatase inhibitor I.

[2] = tested on: Human granulosa cells; experiment: Estradiol production by cultured human granulosa cells with testosterone as substrate (ELISA/RIA); format: cell-based; settings: 3 μM testosterone; for reduction of the inhibitory effect on insulin-induced estradiol production: in the presence of aromatase inhibitor I and insulin, FIG. 2A vs FIG. 2C
Description: as §1

[3] = biological target: T1, aromatase enzyme (Homo sapiens, UniProt P11511); experiment: 125I-testosterone binding to immunoprecipitated aromatase enzyme; settings: for inhibition at 25 µM: 1 μM testosterone, vs control
T1 construct: The aromatase enzyme was immunoprecipitated as described above; endogenous in cells; host or cells: primary granulosa cells (human), lysate immunoprecipitated with anti-human aromatase antibody and Protein A-agarose
T1 sequence (P11511 1-503): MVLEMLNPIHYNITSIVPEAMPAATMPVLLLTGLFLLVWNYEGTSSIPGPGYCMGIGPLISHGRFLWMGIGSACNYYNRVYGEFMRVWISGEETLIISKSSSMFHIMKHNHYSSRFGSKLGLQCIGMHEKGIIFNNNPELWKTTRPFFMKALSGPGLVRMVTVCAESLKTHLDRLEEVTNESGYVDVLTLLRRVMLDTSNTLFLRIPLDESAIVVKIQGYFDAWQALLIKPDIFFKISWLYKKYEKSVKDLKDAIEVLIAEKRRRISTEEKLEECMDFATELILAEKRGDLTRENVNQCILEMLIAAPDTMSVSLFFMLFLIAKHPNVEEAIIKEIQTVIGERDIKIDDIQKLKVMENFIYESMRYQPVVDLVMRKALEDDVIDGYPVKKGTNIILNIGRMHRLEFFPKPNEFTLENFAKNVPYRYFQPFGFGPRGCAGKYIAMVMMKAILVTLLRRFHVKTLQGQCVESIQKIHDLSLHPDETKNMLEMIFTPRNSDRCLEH
Description: (§2) Rabbit polyclonal anti-human aromatase antibodies (1.4 μg) (Abcam, Inc. Cambridge, Mass.) were added to 1 ml of cell lysate. The lysate buffer contained 20 mM Tris-HCl (pH 7.4), 150 mM NaCl, 1 mM CaCl2, 1 mM MgCl2, 1 mM Na orthovanadate, 1% NP40, 1 mM AEBSF (4-2-aminoethyl-benzenesulfonyfluoride, hydrochloride), 0.8 μM aprotinin, 50 μM bestain, 15 μM E-64, 20 μM leupeptin, 10 μM pepstatin A, 1 mM phenylmethylsulfonyl fluoride and 10 μg/ml trypsin inhibitor. The lysate was centrifuged at 6,000 rpm for 3 min and the supernatant was transferred into another micro-centrifuge tube. […] Metab. 92: 2232-2239, 2007, which is incorporated herein by reference. The mixture was incubated for 3-4 h at 4° C. After Protein A-agarose was added, the mixture was incubated again overnight at 4° C. The immunoprecipitate complexes were collected by centrifugation and washed. The samples were then resuspended in 2× Laemmli buffer (BioRad, Hercules, Calif.) supplemented with 1 mM DTT (Cleland's reagent, 1, 4-dithiothreitol, threo-1, 4-dimercapto-2, 3-butanediol, Roche Inc, Indianapolis, Ind.). […] The bands were detected by chemiluminescence (Pierce, Rockford, Ill.). For the analysis of the expression of aromatase, NIH Scion Imaging program was used to evaluate integrated band intensity.
(§3) The aromatase enzyme was immunoprecipitated as described above. Purified aromatase bound to Protein A-agarose was added to 250 μl of solution containing the final concentration of 1 μM testosterone (2 μCi of [125I]/m1 testosterone with the specific radioactivity of 857 μCi/nmol) or androstenedione (3.5 μCi of [125I]/ml androstenedione with the specific radioactivity of 430 μCi/nmol), with insulin (0, 10, 10^2, 10^3 ng/ml) and with or without 25 μM rosiglitazone or pioglitazone. The mixture was incubated at room temperature for 30 min and then centrifuged at 6000 rpm for 3 min. The pellets were washed two times with 400 μl Dulbecco's phosphate saline. The bound testosterone or androstenedione, expressed as % of total testosterone or androstenedione, was measured in Wizard gamma counter.

[4] = tested on: aromatase enzyme (protein) expression; experiment: Aromatase enzyme expression by immunoprecipitation and immunoblotting in granulosa cells; format: cell-based, human; settings: androstenedione or testosterone as substrate; for effect on aromatase enzyme expression: 25 μM, absence or presence of insulin, vs control
Description: as §2, with “La Jolla, Calif.). […]” for “Rabbit polyclonal anti-human aromatase antibodies (1.4 μg) (Abcam, Inc.”, “The lysate buffer contained 20 mM Tris-HCl (pH 7.4), 150 mM NaCl, 1 mM CaCl2, 1 mM MgCl2, 1 mM Na orthovanadate, 1% NP40, 1 mM AEBSF (4-2-aminoethyl-benzenesulfonyfluoride, hydrochloride), 0.8 μM aprotinin, 50 μM bestain, 15 μM E-64, 20 μM leupeptin, 10 μM pepstatin A, 1 mM phenylmethylsulfonyl fluoride and 10 μg/ml trypsin inhibitor.” left out

[5] = biological target: T1, aromatase enzyme; experiment: 125I-androstenedione binding to immunoprecipitated aromatase enzyme; settings: for inhibition at 25 µM: 1 μM androstenedione, vs control
Description: as §2, §3

[6] = tested on: aromatase mRNA; experiment: RT-PCR analysis of aromatase mRNA expression in granulosa cells; format: cell-based, human; settings: androstenedione or testosterone as substrate
[7] = in the presence of aromatase inhibitor I
[8] = 25 μM TZD, presence of insulin, absence of aromatase inhibitor I, vs control without TZD
[9] = 25 μM, absence or presence of insulin, vs control
[10] = insulin, absence of aromatase inhibitor I, vs baseline

Molecule	inhibition of estrone production ([1]; aromatase inhibitor 100 to 200 nM) [%]	inhibition of estradiol production [2, 7] [%]	insulin-induced stimulation of estradiol production [2, 7]	inhibition at 25 µM [3] [%]	effect on aromatase enzyme expression [4]	inhibition at 25 µM [5] [%]	inhibition of estrone production [1, 8] [%]	effect on aromatase mRNA [6, 9]	inhibition of estradiol production [2, 8] [%]	reduction of the inhibitory effect on insulin-induced estradiol production [2] [%]	effect on the binding of testosterone to aromatase ([3]; insulin alone)	effect on aromatase enzyme (protein) expression ([4]; insulin alone)	effect on the binding of androstenedione to aromatase ([5]; insulin alone)	stimulation of estrone production [1, 10] [%]	effect on aromatase mRNA ([6]; insulin alone)	stimulation of estradiol production [2, 10] [%]
4-(imidazolylmethyl)-1-nitro-9H-9-xanthenone [aromatase inhibitor I]	55	72	completely abolished	–	–	–	–	–	–	–	–	–	–	–	–	–
CCc1ccc(CCOc2ccc(CC3SC(=O)NC3=O)cc2)nc1 (centres unmarked) [pioglitazone]	–	–	–	32	no significant effect	20	22	no significant effect	34	62	–	–	–	–	–	–
CN(CCOc1ccc(CC2SC(=O)NC2=O)cc1)c1ccccn1 (centres unmarked) [rosiglitazone]	–	–	–	38	no significant effect	20	22	no significant effect	34	62	–	–	–	–	–	–
insulin: insulin added to granulosa cell culture (0-10^4 ng/ml)	–	–	–	–	–	–	–	–	–	–	no effect	did not affect	no effect	114	no effect	124
